Assay [1] concerns the target T1, system Xc^− (Homo sapiens, UniProt Q9UPY5).
T1 sequence (Q9UPY5 1-501): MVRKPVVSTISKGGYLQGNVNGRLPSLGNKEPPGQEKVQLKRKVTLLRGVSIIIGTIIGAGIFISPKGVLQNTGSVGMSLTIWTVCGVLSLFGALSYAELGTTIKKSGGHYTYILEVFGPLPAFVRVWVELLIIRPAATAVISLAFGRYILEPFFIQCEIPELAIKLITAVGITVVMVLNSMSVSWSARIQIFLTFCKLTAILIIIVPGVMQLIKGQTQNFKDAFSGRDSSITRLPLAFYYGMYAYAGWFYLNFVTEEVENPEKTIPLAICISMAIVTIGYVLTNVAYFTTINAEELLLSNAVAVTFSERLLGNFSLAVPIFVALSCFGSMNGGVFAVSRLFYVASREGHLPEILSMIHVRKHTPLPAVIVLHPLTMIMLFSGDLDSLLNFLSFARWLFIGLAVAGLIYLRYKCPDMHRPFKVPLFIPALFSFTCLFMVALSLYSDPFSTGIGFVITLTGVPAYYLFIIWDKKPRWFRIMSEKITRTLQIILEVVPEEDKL
T1 sequence (P08195 1-529 partner): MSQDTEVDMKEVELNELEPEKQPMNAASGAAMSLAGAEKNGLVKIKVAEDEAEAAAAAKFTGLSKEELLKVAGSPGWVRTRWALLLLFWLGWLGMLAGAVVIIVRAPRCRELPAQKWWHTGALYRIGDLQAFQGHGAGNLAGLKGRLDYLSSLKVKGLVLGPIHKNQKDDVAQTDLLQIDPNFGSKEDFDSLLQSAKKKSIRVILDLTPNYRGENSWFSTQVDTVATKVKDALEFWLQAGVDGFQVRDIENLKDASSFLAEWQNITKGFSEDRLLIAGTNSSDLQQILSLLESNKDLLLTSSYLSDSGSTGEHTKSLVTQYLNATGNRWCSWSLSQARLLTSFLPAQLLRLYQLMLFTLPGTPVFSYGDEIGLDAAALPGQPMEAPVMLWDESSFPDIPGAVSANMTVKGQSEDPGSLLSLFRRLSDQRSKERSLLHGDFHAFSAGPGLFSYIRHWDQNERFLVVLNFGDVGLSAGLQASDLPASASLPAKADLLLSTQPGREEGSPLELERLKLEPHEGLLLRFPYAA
As to the kind of experiment: [^14C]L-Cystine uptake assay. Also noted: endogenous in cells; host or cells: H4 cells. As to conditions: H4 cells, sodium-free HEPES buffer, 0.5 μM L-[14C]Cystine and 4.5 μM L-Cystine, 1 hour at 37° C.; read-out: pIC50 [^14C] L-Cystine uptake assay (converted). The format is cell-based. The method, boiled down: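 H4 cells at 5×10^4 cells/well in sodium-free HEPES buffer were preincubated 15 min with compounds (1% DMSO). Uptake of 0.5 μM [14C]L-cystine plus 4.5 μM unlabelled L-cystine ran 1 hour at 37° C on scintillating plates. IC50 was set between 1% DMSO and 50 μM Erastin controls and expressed as pIC50.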

For assay [2], the target named is T1, system Xc^−. The assay is described as follows: Cystine-induced glutamate release assay. In kind it is cell-based. Also noted: endogenous in cells; host or cells: H4 cells. As to conditions: H4 cells, sodium-free HEPES buffer, 50 μM L-Cystine, 2 hours, Amplex Red glutamate readout; read-out: pIC50 Cystine-induced glutamate release assay (converted). The procedure, abridged: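 H4 cells in sodium-free HEPES buffer (pH 7.4), 2 days after plating; glutamate release induced with 50 μM L-cystine plus compound (1% DMSO), 2 h at 37 °C. Supernatant glutamate measured by Amplex Red fluorescence; IC50/pIC50 derived between 1% DMSO and 50 μM erastin controls.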

For `Cc1cc2c(c(F)n1)-c1cccnc1[C@@H](C)C(=O)N2CC(=O)Nc1ccc2c(c1)CC(F)(F)C2` [#237, N-(2,2-difluoroindan-5-yl)-2-[(10R)-3-fluoro-5,10-dimethyl-9-oxo-4,8,12-triazatricyclo[9.4.0.0^2,7]pentadeca-1(15),2,4,6,11,13-hexaen-8-yl]acetamide], the IC50 at system Xc^− [1] was 39.8 to 100 nM; at system Xc^− [2], 15.8 to 39.8 nM.
With `Cc1cc2c(c(F)n1)-c1cccnc1[C@@H](C)C(=O)N2CC(=O)Nc1ccc2c(c1)OC(F)(F)O2` [#238, N-(2,2-difluoro-1,3-benzodioxol-5-yl)-2-[(10R)-3-fluoro-5,10-dimethyl-9-oxo-4,8,12-triazatricyclo[9.4.0.0^2,7]pentadeca-1(15),2,4,6,11,13-hexaen-8-yl]acetamide], the IC50 at system Xc^− [1] and on system Xc^− [2] was 39.8 to 100 nM each time.
As to `Cc1cc2c(c(F)n1)-c1cccnc1[C@@H](C)C(=O)N2CC(=O)Nc1ccc(F)c(Cl)c1` [#241, N-(3-chloro-4-fluoro-phenyl)-2-[(10R)-3-fluoro-5,10-dimethyl-9-oxo-4,8,12-triazatricyclo[9.4.0.0^2,7]pentadeca-1(15),2,4,6,11,13-hexaen-8-yl]acetamide], the IC50 on system Xc^− [1] is 15.8 to 39.8 nM; at system Xc^− [2], less than 15.8 nM.
The matching figures for `Cc1cc2c(c(F)n1)-c1cccnc1[C@@H](C)C(=O)N2CC(=O)Nc1ccc(Cl)cc1F` [#242, N-(4-chloro-2-fluoro-phenyl)-2-[(10R)-3-fluoro-5,10-dimethyl-9-oxo-4,8,12-triazatricyclo[9.4.0.0^2,7]pentadeca-1(15),2,4,6,11,13-hexaen-8-yl]acetamide]: 39.8 to 100 nM and 15.8 to 39.8 nM.
In the case of `Cc1cc2c(c(F)n1)-c1cccnc1[C@@H](C)C(=O)N2CC(=O)Nc1csc(Cl)c1` [#243, N-(5-chloro-3-thienyl)-2-[(10R)-3-fluoro-5,10-dimethyl-9-oxo-4,8,12-triazatricyclo[9.4.0.0^2,7]pentadeca-1(11),2(7),3,5,12,14-hexaen-8-yl]acetamide], the IC50 at system Xc^− [1] is 39.8 to 100 nM; at system Xc^− [2], 15.8 to 39.8 nM.
For `Cc1cc2c(c(F)n1)-c1cccnc1[C@@H](C)C(=O)N2CC(=O)Nc1ccc(C(C)C)c(F)c1` [#244, 2-[(10R)-3-fluoro-5,10-dimethyl-9-oxo-4,8,12-triazatricyclo[9.4.0.0^2,7]pentadeca-1(11),2(7),3,5,12,14-hexaen-8-yl]-N-(3-fluoro-4-isopropyl-phenyl)acetamide] the same measures were 15.8 to 39.8 nM and 15.8 to 39.8 nM.
For `Cc1cc2c(c(F)n1)-c1cccnc1[C@@H](C)C(=O)N2CC(=O)Nc1ccc(C2(F)CC2)cc1` [#246, N-[4-(1-fluorocyclopropyl)phenyl]-2-[(10R)-3-fluoro-5,10-dimethyl-9-oxo-4,8,12-triazatricyclo[9.4.0.0^2,7]pentadeca-1(11),2(7),3,5,12,14-hexaen-8-yl]acetamide] the same measures were less than 15.8 nM and less than 15.8 nM.
The matching figures for `Cc1cc2c(c(F)n1)-c1cccnc1[C@@H](C)C(=O)N2CC(=O)Nc1ccc(C(F)(F)F)cc1F` [#247, 2-[(10R)-3-fluoro-5,10-dimethyl-9-oxo-4,8,12-triazatricyclo[9.4.0.0^2,7]pentadeca-1(11),2(7),3,5,12,14-hexaen-8-yl)-N-[2-fluoro-4-(trifluoromethyl)phenyl]acetamide]: 39.8 to 100 nM and 39.8 to 100 nM.
Turning to `Cc1cc2c(c(F)n1)-c1cccnc1[C@@H](C)C(=O)N2CC(=O)Nc1ccc(C2(F)CC2)c(F)c1` [#248, 2-[(10R)-3-fluoro-5,10-dimethyl-9-oxo-4,8,12-triazatricyclo[9.4.0.0^2,7]pentadeca-1(11),2(7),3,5,12,14-hexaen-8-yl]-N-[3-fluoro-4-(1-fluorocyclopropyl)phenyl]acetamide], the IC50 at system Xc^− [1] and on system Xc^− [2] was less than 15.8 nM throughout.
